Data on two compounds can be found in patent US20180185510A1, “ANTIBODY DRUG CONJUGATES OF KINESIN SPINDEL PROTEIN (KSP) INHIBITORS WITH ANTI-B7H3-ANTIBODIES” (BAYER PHARMA AKTIENGESELLSCHAFT, priority 2015, published 2018).

SMILES strings stand for the structures.

As usually defined, the IC50 is the concentration that inhibits the measured activity by half.

Data set [1] has as its system A498: human renal carcinoma cells. Briefly: CTG assay, cytotoxic effects of the anti-B7H3 ADCs, A498. The class given is cell-based. The following applies: growth inhibition vs day 0, 72 h incubation, B7H3-positive cells. The method, then: (§1) The analysis of the cytotoxic effects of the anti-B7H3 ADCs was carried out with various cell lines:
(§2) The cells were cultivated by the standard method as stated by the American Tissue Culture Collection (ATCC) for the cell lines in question.
(§3) The cells were cultivated according to the standard method using the growth media listed under C-1. […] The cells were then incubated in an incubator at 37° C. and 5% carbon dioxide. In a parallel plate, the cell vitality was determined at the start of the drug treatment (day 0) using the Cell Titer Glow (CTG) Luminescent Cell Viability Assay (Promega #G7573 and #G7571). To this end, 100 μl of the substrate were added per cell batch, the plates were then covered with aluminium foil, shaken on the plate shaker at 180 rpm for 2 minutes, allowed to stand on the laboratory bench for 8 minutes and then measured using a luminometer (Victor X2, Perkin Elmer). The substrate detects the ATP content in the living cells, generating a luminescence signal the height of which is directly proportional to the vitality of the cells. […] From the measured data, the IC50 of the growth inhibition in comparison to day 0 was calculated using the DRC (dose response curve) analysis spreadsheets with a 4-parameter fit. […]

Data set [2] concerns Caki-2: human renal carcinoma cells. Kind of data set: CTG assay, cytotoxic effects of the anti-B7H3 ADCs, Caki-2. The class given is cell-based. The following applies: growth inhibition vs day 0, 72 h incubation, B7H3-positive cells.
Source text: Caki-2: human renal carcinoma cells, ATCC-HTB-27, standard medium: DMEM/Ham's F12 (#FG4815, Biochrom AG)+10% FCS (#F2442, Sigma), B7H3-positive.
For data set [3], the system named is Raji: human Burkitt's lymphoma cells. Briefly: CTG assay, cytotoxic effects of the anti-B7H3 ADCs, Raji. The class given is cell-based. To be noted: growth inhibition vs day 0, 72 h incubation, B7H3-negative cells. The method, then: as §1, §2, §3
Data set [4] has as its system MCF-7: human breast cancer cells. Briefly: CTG assay, cytotoxic effects of the anti-B7H3 ADCs, MCF-7. The class given is cell-based. The following applies: MCF7, growth inhibition vs day 0, 72 h incubation, B7H3-positive cells. The method, then: as §1, §2, §3
Data set [5] has as its system NCI-H292: human mucoepidermoid lung carcinoma cells. Briefly: MTT assay, cytotoxicity of metabolites, NCI-H292. The class given is cell-based. The following applies: NCI-H292, 96 h incubation. The method, then: NCI-H292: human mucoepidermoid lung carcinoma cells, ATCC-CRL-1848, standard medium: RPMI 1640 (Biochrom; #FG1215, stab. glutamine)+10% FCS (Biochrom; #S0415).
(§4) The cells were cultivated according to the standard method using the growth media listed under C-1. The test is carried out by detaching the cells with a solution of Accutase in PBS (Biochrom AG #L2143), pelleting, resuspending in culture medium, counting and sowing into a 96-well culture plate with white bottom (Costar #3610) (NCI H292: 2500 cells/well in a total volume of 100 μl). The cells were then incubated in an incubator at 37° C. and 5% carbon dioxide. After 48 h, the medium was replaced. The metabolites in 10 μl of culture medium in concentrations from 10^−5M to 10^−13M were then pipetted to the cells (in triplicate), and the assay was then incubated in an incubator at 37° C. and 5% carbon dioxide. […] To this end, the MTT reagent was incubated with the cells for 4 h, followed by lysis of the cells overnight by addition of the detergent. The dye formed was detected at 570 nm (Infinite M1000 pro, Tecan). The measured data were used to calculate the IC50 of the growth inhibition using the DRC (dose response curve). The proliferation of cells which were not treated with test substance but were otherwise identically treated was defined as the 100% figure.
(In general: Tetrazolium dyes change colour on reduction, which living cells bring about.)

The next data set relates to KPL4. Briefly: MTT assay, cytotoxicity of metabolites, KPL4. To be noted: KPL4; 96 h incubation. The class given is cell-based. The method, then: as §4
The test system of the next data set is Caco-2 cells. Kind of data set: Flux assay for cell permeability using Caco-2 cells. The following applies: Caco-2, basal to apical, 2 hours. On the technique in general: Passage across Caco-2 layers is used to estimate intestinal permeability.

For `CC(C)(C)[C@H](c1cc(-c2cc(F)ccc2F)cn1Cc1ccccc1)N(CCCN)C(=O)CO` [Example M09, N-(3-Aminopropyl)-N-{(1R)-1-[1-benzyl-4-(2,5-difluorophenyl)-1H-pyrrol-2-yl]-2,2-dimethylpropyl}-2-hydroxyacetamide], the IC50 was determined as 0.0165 nM in data set [1], 0.0975 nM in data set [2], 0.015 nM in data set [3] and 0.015 nM in data set [4].

In the case of `CC(C)(C)[C@H](c1cc(-c2cc(F)ccc2F)cn1Cc1ccccc1)N(CC[C@H](N)C(=O)NC(CCC(=O)O)C(=O)O)C(=O)CO.O=C(O)C(F)(F)F` (stereo in doubt) [Example M25, N-{(2S)-2-Amino-4-[{(1R)-1-[1-benzyl-4-(2,5-difluorophenyl)-1H-pyrrol-2-yl]-2,2-dimethylpropyl}(glycoloyl)amino]butanoyl}-L-glutamic acid-trifluoroacetic acid (1:1)], the IC50 (in data set [5]; in the data set on KPL4) was 500 nM throughout. Besides, the “Papp (B-A)” value with Caco-2 cells was 0.81 ×10⁻⁶ cm/s.
